Assay results taken from patent publication US20070167452A1, “Therapeutic amide derivatives” (PFIZER, INC., priority 2004, published 2007).

Assays:
NR2B receptor = target: T1, NR2B receptor (Rattus norvegicus, UniProt P35439+Q00960); experiment: NR2B Binding Assay; conditions: forebrain P2 membranes of male CD rats; 5 nM [3H] NR2B ligand
T1 construct: Membranes were prepared by homogenization of forebrain of male CD rats; from tissue; host or cells: forebrain of male CD rats (P2 membrane)
Experimental: The activity of the cycloalkylene amide compounds of the present invention, as NR2B antagonists, is determined by their ability to inhibit the binding of NR2B subunit at its receptor sites employing radioactive ligands.
The NR^2B antagonist activity of the cycloalkylene amide compounds is evaluated by using the standard assay procedure described in, for example, J. Pharmacol., 331, pp 117-126, 1997. This method essentially involves determining the concentration of the individual compound required to reduce the amount of radiolabelled NR2B ligands by 50% at their receptor sites, thereby affording characteristic IC50 values for each compound tested. More specifically, the assay is carried out as follows.
Membranes were prepared by homogenization of forebrain of male CD rats weighing between 170˜190 g by using glass-Teflon homogenizer in 0.32 M sucrose at 4° C. The crude nuclear pellet was removed by centrifugation at 1000×g for 10 min, and the supernatant centrifuged at 17000×g for 25 min. The resulting pellet was resuspended in 5 mM Tris acetate pH 7.4 at 4° C. for 10 min to lyse cellular particles and again centrifuged at 17000×g. The resulting pellet (P2 membrane) was washed twice in Tris acetate, resuspended at 5.5 mg protein/ml and stored at −20° C. until use. All the manipulation was done on ice, and stock solution and equipment were kept on ice at all time.
For the saturation assay, receptor saturation was determined by incubating [^3H]-1-[(1S*,2S*)-2-hydroxy-2-(4-hydroxyphenyl)-1-methylethyl]-4-phenylpiperidin-4-ol and 50 μg protein of P2 membrane for 60 minutes at room temperature in a final 100 μl of incubation buffer (50 mM Tris HCl, pH7.4). Total and non-specific bindings (in the presence of 10 μM of unlabeled 1-[(1S*,2S*)-2-hydroxy-2-(4-hydroxyphenyl)-1-methylethyl]-4-phenylpiperidin-4-ol) were determined in a range of [^3H]-1-[(1S*,2S*)-2-hydroxy-2-(4-hydroxyphenyl)-1-methylethyl]-4-phenylpiperidin-4-ol concentrations (0.625 nM to 60 nM).
For the competition assay, test compounds were incubated in duplicate with 5 nM [^3H]-1-[(1S*,2S*)-2-hydroxy-2-(4-hydroxyphenyl)-1-methylethyl]-4-phenylpiperidin-4-ol and 50 μg protein of P2 membrane for 60 minutes at room temperature in a final 100 μl of 50 mM Tris HCl buffer (pH7.4). Nonspecific binding was determined by 10 μM of unlabeled 1-[(1S*,2S*)-2-hydroxy-2-(4-hydroxyphenyl)-1-methylethyl]-4-phenylpiperidin-4-ol (25 μl). The saturation derived KD gained in saturation assay was used for all Ki calculations.
All incubations were terminated by rapid vacuum filtration over 0.2% polyethyleneimine soaked Whatman GF/B glass fibre filter paper using a SKATRON cell harvester followed by three washes with ice-cold filtration buffer (5 mM Tris HCl, pH 7.4.). Receptor-bound radioactivity was quantified by liquid scintillation counting using Packard LS counter. Competition assays were performed by counting Wallac GF/B filters on Betaplate scintillation counter (Wallac).

Human HERG = Human HERG (Homo sapiens, UniProt Q12809); experiment: Human Dofetilide Binding Assay
Chain of Human HERG (Q12809 whole entry): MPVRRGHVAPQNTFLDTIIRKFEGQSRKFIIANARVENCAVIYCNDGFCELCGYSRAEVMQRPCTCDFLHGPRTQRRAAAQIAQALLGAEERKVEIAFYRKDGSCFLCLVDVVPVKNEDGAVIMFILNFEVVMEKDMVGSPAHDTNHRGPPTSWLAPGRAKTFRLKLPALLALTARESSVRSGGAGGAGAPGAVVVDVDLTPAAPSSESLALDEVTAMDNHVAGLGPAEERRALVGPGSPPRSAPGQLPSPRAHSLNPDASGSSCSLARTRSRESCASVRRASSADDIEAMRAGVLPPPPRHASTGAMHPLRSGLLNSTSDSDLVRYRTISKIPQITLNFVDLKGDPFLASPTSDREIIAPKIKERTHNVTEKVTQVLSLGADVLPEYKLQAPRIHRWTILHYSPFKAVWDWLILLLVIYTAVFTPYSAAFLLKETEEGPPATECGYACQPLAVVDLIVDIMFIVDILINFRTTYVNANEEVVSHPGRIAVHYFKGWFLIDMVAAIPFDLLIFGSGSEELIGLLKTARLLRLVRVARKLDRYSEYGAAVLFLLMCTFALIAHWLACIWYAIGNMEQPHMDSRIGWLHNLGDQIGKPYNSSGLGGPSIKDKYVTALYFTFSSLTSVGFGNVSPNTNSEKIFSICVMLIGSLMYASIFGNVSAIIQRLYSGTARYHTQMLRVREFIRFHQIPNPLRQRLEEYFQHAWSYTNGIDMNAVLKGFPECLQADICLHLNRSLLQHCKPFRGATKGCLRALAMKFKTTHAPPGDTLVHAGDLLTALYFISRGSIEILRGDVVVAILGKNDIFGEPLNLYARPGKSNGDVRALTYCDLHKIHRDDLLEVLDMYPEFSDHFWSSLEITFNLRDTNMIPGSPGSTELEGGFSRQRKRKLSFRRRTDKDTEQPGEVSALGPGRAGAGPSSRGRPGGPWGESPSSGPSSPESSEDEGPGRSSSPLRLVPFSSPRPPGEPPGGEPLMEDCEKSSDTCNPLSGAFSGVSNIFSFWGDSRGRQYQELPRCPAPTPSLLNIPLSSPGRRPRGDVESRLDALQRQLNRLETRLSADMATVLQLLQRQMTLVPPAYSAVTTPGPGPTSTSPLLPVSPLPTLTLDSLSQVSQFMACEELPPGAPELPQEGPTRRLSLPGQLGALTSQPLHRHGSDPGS
Experimental: Human HERG transfected HEK293S cells were prepared and grown in-house. The collected cells were suspended in 50 mM Tris-HCl (pH 7.4 at 4° C.) and homogenized using a hand held Polytron PT 1200 disruptor set at full power for 20 sec on ice. The homogenates were centrifuged at 48,000×g at 4° C. for 20 min. The pellets were then resuspended, homogenized, and centrifuged once more in the same manner. The final pellets were resuspended in an appropriate volume of 50 mM Tris-HCl, 10 mM KCl, 1 mM MgCl2 (pH 7.4 at 4° C.), homogenized, aliquoted and stored at −80° C. until use. An aliquot of membrane fractions was used for protein concentration determination using BCA protein assay kit (PIERCE) and ARVOsx plate reader (Wallac).
Binding assays were conducted in a total volume of 200 μl in 96-well plates. Twenty μl of test compounds were incubated with 20 μl of [^3H]-dofetilide (Amersham, final 5 nM) and 160 μl of membrane homogenate (25 μg protein) for 60 minutes at room temperature. Nonspecific binding was determined by 10 μM dofetilide at the final concentration. Incubation was terminated by rapid vacuum filtration over 0.5% presoaked GF/B Betaplate filter using Skatron cell harvester with 50 mM Tris-HCl, 10 mM KCl, 1 mM MgCl2, pH 7.4 at 4° C. The filters were dried, put into sample bags and filled with Betaplate Scint. Radioactivity bound to filter was counted with Wallac Betaplate counter.

T1 sequence (Q00960 27-1482, other chains not shown): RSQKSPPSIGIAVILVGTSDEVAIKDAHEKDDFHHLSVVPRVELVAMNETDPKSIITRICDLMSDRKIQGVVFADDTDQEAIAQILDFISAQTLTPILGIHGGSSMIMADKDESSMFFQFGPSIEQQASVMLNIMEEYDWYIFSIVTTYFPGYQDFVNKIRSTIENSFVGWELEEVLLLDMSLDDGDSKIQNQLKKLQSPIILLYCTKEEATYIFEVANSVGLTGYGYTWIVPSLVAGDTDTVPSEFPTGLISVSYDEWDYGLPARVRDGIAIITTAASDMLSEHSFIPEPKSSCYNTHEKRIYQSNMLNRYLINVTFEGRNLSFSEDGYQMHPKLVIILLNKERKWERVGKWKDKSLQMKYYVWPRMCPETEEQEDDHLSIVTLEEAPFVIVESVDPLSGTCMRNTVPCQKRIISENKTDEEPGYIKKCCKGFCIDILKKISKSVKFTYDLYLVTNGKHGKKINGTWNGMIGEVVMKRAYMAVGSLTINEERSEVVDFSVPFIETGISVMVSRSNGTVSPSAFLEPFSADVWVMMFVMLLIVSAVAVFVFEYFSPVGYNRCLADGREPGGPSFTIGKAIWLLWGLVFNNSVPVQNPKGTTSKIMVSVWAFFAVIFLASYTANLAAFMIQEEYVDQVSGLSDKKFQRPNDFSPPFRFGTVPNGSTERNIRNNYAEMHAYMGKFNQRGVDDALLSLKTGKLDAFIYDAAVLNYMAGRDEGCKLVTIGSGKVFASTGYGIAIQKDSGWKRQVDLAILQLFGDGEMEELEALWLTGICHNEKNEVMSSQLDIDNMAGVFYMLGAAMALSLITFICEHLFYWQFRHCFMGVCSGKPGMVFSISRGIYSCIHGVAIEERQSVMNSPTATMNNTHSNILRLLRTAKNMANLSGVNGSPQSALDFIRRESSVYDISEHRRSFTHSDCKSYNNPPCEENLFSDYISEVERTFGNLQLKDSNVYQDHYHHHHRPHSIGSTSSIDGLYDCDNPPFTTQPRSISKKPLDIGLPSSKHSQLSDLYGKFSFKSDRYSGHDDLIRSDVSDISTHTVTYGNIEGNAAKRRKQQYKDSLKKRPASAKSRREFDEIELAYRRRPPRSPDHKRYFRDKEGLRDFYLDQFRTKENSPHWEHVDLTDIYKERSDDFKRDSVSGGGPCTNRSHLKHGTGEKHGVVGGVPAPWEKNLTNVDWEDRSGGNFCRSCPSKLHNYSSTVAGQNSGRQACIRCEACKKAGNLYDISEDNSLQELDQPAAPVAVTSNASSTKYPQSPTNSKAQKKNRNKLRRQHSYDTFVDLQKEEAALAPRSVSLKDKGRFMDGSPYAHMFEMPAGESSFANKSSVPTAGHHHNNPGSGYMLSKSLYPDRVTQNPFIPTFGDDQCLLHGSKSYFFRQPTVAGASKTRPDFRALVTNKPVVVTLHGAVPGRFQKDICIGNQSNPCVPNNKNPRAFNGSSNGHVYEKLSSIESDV

Row | SMILES | melting point | further results
1 | O=C(NC[C@H]1CC[C@@H](OCCOc2ccccc2)CC1)c1ccc(O)cc1 [Example 78] |  | IC50 (NR2B receptor): 5.4 nM; IC50 (Human HERG): 40.8 µM
2 | O=C(NC[C@]1(O)CC[C@H](COc2ccccc2)CC1)c1ccc(O)cc1 [Example 8, 4-Hydroxy-N-{[trans-1-hydroxy-4-(phenoxymethyl)cyclohexyl]methyl}benzamide] | 189.5 °C | 
3 | O=C(NC[C@]1(O)CC[C@H](CCOc2ccccc2F)CC1)c1ccc(O)cc1 [Example 27, N-({trans-4-[2-(2-Fluorophenoxy)ethyl]-1-hydroxycyclohexyl}methyl)-4-hydroxybenzamide] | 178.9 °C | 
4 | O=C(NC[C@H]1CC[C@@H](CCOc2ccccc2)CC1)c1ccnc(O)c1 [Example 83, 2-Hydroxy-N-{[cis-4-(2-phenoxyethyl)cyclohexyl]methyl}isonicotinamide] | 199.9 °C | 
5 | COc1cccc(OC[C@H]2CC[C@@](O)(CNC(=O)c3ccc(O)cc3)CC2)c1 [Example 20, 4-Hydroxy-N-({trans-1-hydroxy-4-[(3-methoxyphenoxy)methyl]cyclohexyl}methyl)benzamide] | 190.3 °C | 
6 | O=C(NC[C@H]1CC[C@@H](CCOc2ccccc2)CC1)c1ccc(=O)[nH]n1 [Example 93, 6-Oxo-N-{[cis-4-(2-phenoxyethyl)cyclohexyl]methyl}-1,6-dihydropyridazine-3-carboxamide] | 177.5 °C | 
7 | O=C(NC[C@H]1CC[C@@H](CCOc2ccccc2)CC1)c1ccc(O)nc1 [Example 84, 6-Hydroxy-N-{[cis-4-(2-phenoxyethyl)cyclohexyl]methyl}nicotinamide] | 167.6 °C | 
8 | O=C(NC[C@]1(O)CC[C@H](CCOc2ccc(F)cc2)CC1)c1ccc(O)cc1 [Example 29, N-({trans-4-[2-(4-Fluorophenoxy)ethyl]-1-hydroxycyclohexyl}methyl)-4-hydroxybenzamide] | 177.5 °C | 
9 | O=C(NC[C@H]1CC[C@@H](COc2ccccc2F)CC1)c1cn[nH]c1 [Example 100, N-({cis-4-[(2-Fluorophenoxy)methyl]cyclohexyl}methyl)-1H-pyrazole-4-carboxamide] | 139.8 °C | 
10 | O=C(NC[C@H]1CC[C@@H](CCOc2ccccc2)CC1)c1ccn[nH]1 [Example 85, N-{[cis-4-(2-Phenoxyethyl)cyclohexyl]methyl}-1H-pyrazole-5-carboxamide] | 130.5 °C | 
11 | O=C(NC[C@H]1CC[C@@H](CCOc2ccccc2)CC1)c1ccc2[nH]ncc2c1 [Example 103, N-{[cis-4-(2-Phenoxyethyl)cyclohexyl]methyl}-1H-indazole-5-carboxamide] | 144.5 °C | 
12 | O=C(NC[C@]1(O)CC[C@H](CCOc2cccc(F)c2)CC1)c1ccc(O)cc1 [Example 28, N-({trans-4-[2-(3-Fluorophenoxy)ethyl]-1-hydroxycyclohexyl}methyl)-4-hydroxybenzamide] | 134.5 °C | 
13 | O=C(NC[C@]1(O)CC[C@H](OCc2cccc(F)c2)CC1)c1ccc(O)c(F)c1 [Example 49] | 138.2 °C | 
14 | O=C(NC[C@]1(O)CC[C@@H](Oc2ccc(Cl)cc2)CC1)c1ccc(O)cc1 [Example 32, N-{[cis-4-(4-Chlorophenoxy)-1-hydroxycyclohexyl]methyl}-4-hydroxybenzamide] | 196.6 °C | 
15 | O=C(NC[C@H]1CC[C@@H](Oc2ccc(F)cc2)CC1)c1ccc(O)c(F)c1 [Example 55, 3-Fluoro-N-{[cis-4-(4-fluorophenoxy)cyclohexyl]methyl}-4-hydroxybenzamide] | 149.5 °C | 
16 | O=C(NC[C@H]1CC[C@@H](COc2ccc(F)cc2)CC1)c1cn[nH]c1 [Example 109, N-({cis-4-[(4-Fluorophenoxy)methyl]cyclohexyl}methyl)-1H-pyrazole-4-carboxamide] | 147.1 °C | 
17 | O=C(NC[C@]1(O)CC[C@H](CCOc2ccccc2F)CC1)c1ccc(O)c(F)c1 [Example 51, 3-Fluoro-N-({trans-4-[2-(2-fluorophenoxy)ethyl]-1-hydroxycyclohexyl}methyl)-4-hydroxybenzamide] | 184.7 °C | 

Row | SMILES | melting point | further results
18 | O=C(NC[C@]1(O)CC[C@H](COCc2ccc(Cl)cc2)CC1)c1ccc(O)cc1 [Example 25, N-[(trans-4-{[(4-Chlorobenzyl)oxy]methyl}-1-hydroxycyclohexyl)methyl]-4-hydroxybenzamide] | 164.1 °C | 
19 | O=C(NC[C@H]1CC[C@@H](CCOc2ccccc2)CC1)c1c[nH]cn1 [Example 86, N-{[cis-4-(2-Phenoxyethyl)cyclohexyl]methyl}-1H-imidazole-4-carboxamide] | 169.6 °C | 
20 | O=C(NC[C@]1(O)CC[C@H](CCOc2ccccc2)CC1)c1ccc(O)cc1 [Example 26, 4-Hydroxy-N-{[trans-1-hydroxy-4-(2-phenoxyethyl)cyclohexyl]methyl}benzamide] | 168.7 °C | 
21 | O=C(NC[C@H]1CC[C@@H](Cc2ccccc2)CC1)c1ccc2nc(O)ccc2c1 [Example 122, N-[(cis-4-Benzylcyclohexyl)methyl]-2-hydroxyquinoline-6-carboxamide] | 236.7 °C | 
22 | O=C(NC[C@H]1CC[C@@H](CCOc2ccccc2)CC1)c1cn[nH]c1 [Example 77, N-{[cis-4-(2-Phenoxyethyl)cyclohexyl]methyl}-1H-pyrazole-4-carboxamide] | 155.7 °C | 
23 | O=C(NC[C@H]1CC[C@@H](CCOc2ccccc2)CC1)c1cc[nH]c1 [Example 96, N-{[cis-4-(2-Phenoxyethyl)cyclohexyl]methyl}-1H-pyrrole-3-carboxamide] | 121 °C | 
24 | Nc1n[nH]cc1C(=O)NC[C@H]1CC[C@@H](CCOc2ccccc2)CC1 [Example 102, 3-Amino-N-{[cis-4-(2-phenoxyethyl)cyclohexyl]methyl)-1H-pyrazole-4-carboxamide] | 129.3 °C | 
25 | O=C(NC[C@H]1CC[C@@H](CCOc2ccccc2)CC1)c1c[nH]nn1 [Example 104, N-{[cis-4-(2-Phenoxyethyl)cyclohexyl]methyl}-1H-1,2,3-triazole-4-carboxamide] | 141.2 °C | 
26 | O=C(NC[C@H]1CC[C@@H](COc2ccccc2)CC1)c1ccc(O)nc1 [Example 82, 6-Hydroxy-N-{[cis-4-(phenoxymethyl)cyclohexyl]methyl}nicotinamide] | 189.8 °C | 
27 | O=C(NC[C@]1(O)CC[C@H](COc2ccccc2Cl)CC1)c1ccc(O)cc1 [Example 14, N-({trans-4-[(2-Chlorophenoxy)methyl]-1-hydroxycyclohexyl}methyl)-4-hydroxybenzamide] | 159 °C | 
28 | O=C(NC[C@H]1CC[C@@H](Oc2ccc(F)cc2)CC1)c1ccc(O)cc1 [Example 54, N-{[cis-4-(4-Fluorophenoxy)cyclohexyl]methyl}-4-hydroxybenzamide] | 170.5 °C | 
29 | O=C(NC[C@H]1CC[C@@H](OCCc2ccccc2)CC1)c1cn[nH]c1 [Example 72, N-{[cis-4-(2-Phenylethoxy)cyclohexyl]methyl}-1H-pyrazole-4-carboxamide] | 145 °C | 
30 | O=C(NC[C@H]1CC[C@@H](CCOc2ccccc2)CC1)c1ccc2[nH]c(=O)sc2c1 [Example 101, 2-Oxo-N-{[cis-4-(2-phenoxyethyl)cyclohexyl]methyl}-2,3-dihydro-1,3-benzothiazole-6-carboxamid] | 159.9 °C | 
31 | O=C1CCc2cc(C(=O)NC[C@H]3CC[C@@H](Cc4ccccc4)CC3)ccc2N1 [Example 118, N-[(cis-4-Benzylcyclohexyl)methyl]-2-oxo-1,2,3,4-tetrahydroquinoline-6-carboxamide] | 188.5 °C | 
32 | O=C(NC[C@]1(O)CC[C@H](OCc2ccc(F)cc2)CC1)c1ccc(O)cc1 [Example 47, N-({trans-4-[(4-Fluorobenzyl)oxy]-1-hydroxycyclohexyl}methyl)-4-hydroxybenzamide] | 122.1 °C | 
33 | O=C(NC[C@]1(O)CC[C@H](COc2c(F)cccc2F)CC1)c1ccc(O)cc1 [Example 12, N-({trans-4-[(2,6-Difluorophenoxy)methyl]-1-hydroxycyclohexyl}methyl)-4-hydroxybenzamide] | 153.7 °C | 
